According to US20110195924A1, “Methods of Inhibiting the Interaction Between S100P and the Receptor for Advanced Glycation End-Products” (priority 2008, published 2011):
“Also recorded” adds a separate entry of the source.

Tests used:
MPanc96 tumors = test: MPanc96 pancreatic tumor growth and survival in mice (analogs); type: in vivo
Procedure: (§1) Various cromolyn-based analogs were developed. The effects of the analogs on binding of S100P with RAGE were evaluated for the analogs using a sandwich ELISA. The effectiveness of the analogs to block cancer cell proliferatin and increase apoptosis in vitro were analyzed with and without cisplatin, 5-flurouracil and gemcitabine by MTS and FACS analysis. We also examined the ability of the analogs to inhibit S100P activation of NFkB signaling in cancer cells in vitro and in vivo. Finally, the effects of the novel analogs on tumor growth in vivo was evaluated. One analog, C5OH is shown below:
Animals were implanted with MPanc96 cells, a gemcitabine resistant model of pancreatic cancer, and then treated with gemcitabine, C5OH, or the combination. […] Noteworthy, the addition of the hydroxyl group to the carbon chain in C5 allows easy modifications of this molecule. The hydroxyl can be substituted with fluoride that can be labeled for in vivo PET imaging. This hydroxyl can also be used to develop a pro-drug form of C5 by attaching other components with an ester bond.

NFkB activity = test: S100P induced NFkB activity in cancer cells (analogs); type: cell-based
Procedure: Various cromolyn-based analogs were developed. The effects of the analogs on binding of S100P with RAGE were evaluated for the analogs using a sandwich ELISA. The effectiveness of the analogs to block cancer cell proliferatin and increase apoptosis in vitro were analyzed with and without cisplatin, 5-flurouracil and gemcitabine by MTS and FACS analysis. We also examined the ability of the analogs to inhibit S100P activation of NFkB signaling in cancer cells in vitro and in vivo. Finally, the effects of the novel analogs on tumor growth in vivo was evaluated.

S100P binding with RAGE = target: T1, S100P binding with RAGE (Homo sapiens, UniProt P25815); test: ELISA of S100P binding to RAGE (sRAGE coated plate); conditions: analogs at 10-fold lower concentration than cromolyn
T1 construct: full-length human S100P cDNA (NM_005980) was cloned into the pTrcHis2 vector; His; made in house; host or cells: bacteria (S100P)
T1 sequence (P25815 1-95): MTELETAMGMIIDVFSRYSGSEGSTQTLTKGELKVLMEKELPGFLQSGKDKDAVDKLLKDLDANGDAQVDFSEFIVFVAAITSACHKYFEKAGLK
Procedure: After removing un-bound S100P by washing with detergent, the bound S100P and RAGE complex was quantified by adding HRP labeled antibody against S100P. *, P=0.04 C5 1 μM versus cromolyn 5 μM. Two-tailed two-sample (unpaired) Student's t-tests were used to determine P values.
The plate was washed and the amount of bound S100P was quantitated using anti-S100P antibody.
The binding of S100P to RAGE was determined using an ELISA assay. sRAGE was attached to the dish and recombinant S100P (50 ng) was added with or without the indicated concentrations of cromolyn analogs. The plate was washed and the amount of bound S100P was quantitated using anti-S100P antibody.

pancreatic cancer cells = test: Apoptosis of pancreatic cancer cells with cromolyn analogs and cytotoxic drugs; type: cell-based
Procedure: as §1
In this in vitro study, pancreatic cancer cells were treated with gemcitabine alone or in the presence of cromolyn analogs. The cromolyn analogs themselves have very little effect on the rates of cellular apoptosis, supporting their absence of general toxicity. However, all cromolyn analogs increased the killing of pancreatic cancer cells by gemcitabine.

Panc-1 cells [1] = test: Panc-1 cell proliferation (MTS); type: cell-based; conditions: Panc-1
Procedure: Panc-1 pancreatic adenocarcinoma cells (1.0×10^3 cells/well) were cultured in the presence or absence of S100P (100 nM) and with or without cromolyn (100 μM), and cell proliferation was analyzed at 24, 48, and 72 hours. Means and 95% confidence intervals of three independent experiments performed in triplicate are shown. *, P=0.001, S100P alone versus S100P+cromolyn.
Panc-1 cells were plated at 1.0×10^3 cells/well and treated with platelet-derived growth factor (10 ng/mL) with or without cromolyn (100 μM), and cell proliferation was analyzed after 48 hours. Means and 95% confidence intervals of three independent experiments performed in triplicate are shown. *, P=0.004 PDGF and P=0.022 cromolyn+PDGF versus control.
Growth of Panc-1 and BxPC3 pancreatic adenocarcinoma cells was analyzed using MTS reagent (Promega, Madison, Wis.) according to the manufacturer's directions. Purified S100P (100 nM final concentration) with or without cromolyn (100 μM final concentration) was added to Panc-1 cells. Only cromolyn (0-100 μM) was added to BxPC-3 cells, which express endogenous S100P. For both cell models, 1.0×10^3 cells/well were plated in 96-well culture dishes. Cells were treated with S100P, PDGF, or cromolyn, or a combination, followed immediately by treatment with either S100P or PDGF. MTS (20 μL per well) was added to cells at various times, and the mixture was incubated for 1 hour at 37° C. Samples were then read at 490 nm (as O.D. units) on a uQuant-Microplate Spectrophotometer (Bio-Tek Services Inc., Richmond, Va.). The assay was performed three times in triplicate.

Panc-1 cells [2] = test: Panc-1 matrigel invasion assay; type: cell-based; conditions: Panc-1; S100P 100 nM alone, 24 hours
Procedure: FIGS. 2A-2D show the effect of cromolyn on pancreatic cancer cell invasion. Panc-1 and BxPC-3 cells were plated in Bio-coat matrigel and control chambers and cultured in serum-free culture media. After 24 hours non-invaded cells in the upper chamber were removed, and cells that invaded onto the lower surface of the membrane were counted from five adjacent fields. […] Data are expressed as the percent invasion through the matrigel matrix and membrane relative to migration through the control membrane. Means and 95% confidence intervals from three independent experiments performed in triplicate are shown. Two-tailed two-sample (unpaired) Student's t-tests were used to determine P values.
Panc-1 and BxPC-3 cells were seeded in BIOCOAT matrigel invasion chambers and in control chambers without matrigel (Becton-Dickinson, Bedford, Mass.) according to the manufacturer's protocol. Panc-1 cells were seeded with S100P (100 nM) with or without cromolyn (100 μM), and BxPC-3 cells were seeded with or without cromolyn (1-100 μM). Briefly, 2.0×10^5 cells in 300 μL top solution (serum-free media) were added to each chamber and allowed to invade matrigel for 24 hours at 37° C. in a 5% CO2 atmosphere. The non-invading cells on the upper surface of membrane were removed from the chambers with a cotton swab, and the invading cells on the lower surface of the membrane were fixed and stained using a Diff-Quick stain kit (Becton Dickinson, Bedford, Mass.). After two washes with water, the chambers were allowed to air dry. The numbers of invading cells in five adjacent microscope fields per membrane were counted at 20× magnification to obtain the average number of cells per field. Data are expressed as the percent invasion through the matrigel matrix and membrane relative to the migration through the control membrane. The assays were performed three times.

NFκB promoter activity = test: NFκB luciferase reporter assay in Panc-1 cells; type: cell-based; conditions: 5 hours
Procedure: FIGS. 3A, 3B, and 3C show the effect of cromolyn on S100P stimulated NFκB promoter activity in pancreatic cancer cells in vitro and in vivo. Panc-1 and BxPC-3 pancreatic cancer cell lines stably expressing an NFκB luciferase reporter were examined for the effects of S100P and cromolyn. […] Means and 95% confidence intervals are shown for three independent experiments performed in triplicate. *, P=0.022, †, P<0.001, and P<0.001 versus control; #, P=0.005 versus 100 nM S100P alone. […] Means and 95% confidence intervals are shown for three independent experiments performed in triplicate. *, P=0.003, †, P<0.001 versus control. […] After 1 week, tumor growth was assessed and NFκB activity was analyzed using an IVIS system (Xenogen Corp., Alameda, Calif.) after injecting mice with D-luciferin (150 mg per kg body weight) (0 time point). The mice were treated with cromolyn (5 mg per kg body weight by intraperitoneal injection), and NFκB luciferase activity was analyzed again at 24 and 48 hours. *, P=0.005 versus control. Means and 95% confidence intervals are shown for two independent experiments (n=4 mice per group). Two-tailed two-sample (unpaired for in vitro and paired for in vivo studies) Student's t-tests were used to determine P values.
To study pancreatic cancer cell NFκB activity, a lentivirus NFκB luciferase reporter gene construct was developed. The NFκB luciferase reporter gene was excised and isolated from the pNF-κB-Luc Vector (Clonetec, Mountain View, Calif.) and cloned into the lentiviral vector FG9 (Gift from Dr. Xiao-Feng Qin, Dept. of Immunology, M.D. Anderson Cancer Center replacing the CMV/LTR and UBiC promoters, to form Lenti-NFκB-Luc. Lentiviral NFκB vector were co-transfected with packaging constructs pRSVREV, pMDLg/pRRE, and the VSV-G expression plasmid pHCMVG, and lentivirus was produced in 293T cells by the calcium transfection method, as previously described in Qin, et al., Inhibiting HIV-1 infection in human T cells by lentiviral-mediated delivery of small interfering RNA against CCR5; Proc. Natl. Acad. Sci. U.S.A. 2003 Jan. 7; 100(1):183-8. […] Functional validation of NFκB reporter activity was conducted in vitro using TNF-α (20 ng/mL, Sigma, St. Louis, Mo.) as a positive control.
BxPC-3 and Panc-1 cells stably expressing a Lenti-NFkB-luc reporter construct were treated with S100P, cromolyn, or the combination for 5 hours. D-luciferin (150 μg/mL) was added to the cells, and luciferase activity was measured using an IVIS bioluminescence system (Xenogen Co. Alameda, Calif.). Each experiment was conducted three times in triplicate.

[3] = MPanc96, gemcitabine resistant model, to a greater extent than gemcitabine

O=C([O-])c1cc(=O)c2c(OCCC(O)CCOc3cccc4oc(C(=O)[O-])cc(=O)c34)cccc2o1.[Na+].[Na+] [C5OH]
survival of mice with pancreatic tumors (MPanc96 tumors; [3]): prolongs survival
tumor growth (MPanc96 tumors; [3]): reduces tumor growth
effects relative to gemcitabine (MPanc96 tumors; MPanc96 model): superior to those of gemcitabine
inhibition of tumor growth and survival in vivo, relative to cromolyn (MPanc96 tumors; mouse, in vivo): superior to cromolyn
inhibition of S100P induced NFkB activity relative to cromolyn (NFkB activity): more potently and effectively than did cromolyn
potency in blocking S100P binding to RAGE relative to cromolyn or C5 (S100P binding with RAGE): nearly equally potent and more efficient than cromolyn; also recorded: at least as effective as the C5-analog
cancer cell apoptosis in response to various cytoxic treatments, relative to cromolyn (pancreatic cancer cells): at lesser concentrations and to a greater extent than did cromolyn
killing of pancreatic cancer cells by gemcitabine (pancreatic cancer cells; with gemcitabine, C5 and C5OH at 10-fold lower concentration than cromolyn): worked equally well

PDGF
cell proliferation, difference versus control (Panc-1 cells [1]; PDGF 10 ng/mL, 48 hours): 0.2 MTS units
cell proliferation, mean (Panc-1 cells [1]; PDGF 10 ng/mL, 48 hours, control mean 0.5): 0.7 MTS units

B1: S100P: purified His-tagged full-length human S100P protein, 95-amino acid member of the S100 family (protein, UniProt P25815 1-95, looked up)
Protein S100-P: MTELETAMGMIIDVFSRYSGSEGSTQTLTKGELKVLMEKELPGFLQSGKDKDAVDKLLKDLDANGDAQVDFSEFIVFVAAITSACHKYFEKAGLK
modifications: His tag
notes: purified His-tagged full-length human S100P protein, 95-amino acid member of the S100 family
cells invaded, mean (Panc-1 cells [2]): 58.0%
cell proliferation, mean (Panc-1 cells [1]; S100P 100 nM alone): 0.93 MTS units
NFκB promoter activity, difference versus 0 nM (NFκB promoter activity; S100P 1 nM): 3544 photons/sec
NFκB promoter activity, mean (NFκB promoter activity; S100P 1 nM, 0 nM mean 3358): 6902 photons/sec
NFκB promoter activity, difference versus 0 nM (NFκB promoter activity; S100P 10 nM): 5400 photons/sec
NFκB promoter activity, mean (NFκB promoter activity; S100P 10 nM): 8758 photons/sec
NFκB promoter activity, difference versus 0 nM (NFκB promoter activity; S100P 100 nM): 11100 photons/sec
NFκB promoter activity, mean (NFκB promoter activity; S100P 100 nM): 14460 photons/sec
